These results are taken from publication PMC8068036, “Synthesis of New Biscoumarin Derivatives, In Vitro Cholinesterase Inhibition, Molecular Modelling and Antiproliferative Effect in A549 Human Lung Carcinoma Cells” (International Journal of Molecular Sciences, 2021).

Series [1] addresses T1, hBChE (human plasma) (Homo sapiens, UniProt P06276).
T1 construct: Human plasma was used as a source of BChE; from tissue; host or cells: human plasma from heparinized blood
The series can be described thus: biochemical. To be noted: human plasma BChE, mean of at least three experiments. The format is biochemical. The procedure:
(§1) Human recombinant AChE (EC 3.1.1.7), 5,5′-dithiobis(2-nitrobenzoic acid) (Ellman′s reagent, DTNB), phosphate buffer (PB, 0.1 M, pH 7.4), and acetylthiocholine (ATC) and butyrylthiocholine (BTC), were purchased from Sigma-Aldrich, Prague, Czech Republic. Human plasma was used as a source of BChE and was prepared from heparinized human blood. The blood was centrifuged for 20 min (4 °C, 2300× g) on a Hettich Universal 320R centrifuge. The plasma was separated and stored at […]. Polystyrene Nunc 96-well microplates with a flat bottom shape (ThermoFisher Scientific, Waltham, MA, USA) were used for measuring purposes.
(§2) All of the assays were carried out in a 0.1 M phosphate buffer, pH 7.4. The assay medium (100 µL) consisted of 40 µL of 0.1 M phosphate buffer (pH 7.4), 20 µL of 0.01 M DTNB, 10 µL of the enzyme, and 20 µL of 0.01 M substrate ATC/BTC iodide solution).
(§3) The tested compounds were preincubated for 5 min prior to use. The reaction was initiated immediately upon addition of 20 µL of the substrate. […] Each concentration was assayed in triplicate. Software GraphPad Prism 5 (San Diego, CA, USA) was used in the evaluation of the statistical data.

Series [2] deals with T2, human recombinant AChE (Homo sapiens, UniProt P22303).
T2 construct: purchased Sigma-Aldrich, Prague, Czech Republic
In words: biochemical. The format is biochemical. The settings on record: mean of at least three experiments. As for the experimental part:
as §1, §2, §3

Series [3] can be described thus: in vitro. As for the experimental part: The parallel artificial membrane permeability assay (PAMPA) is used as a non-cell-based in vitro assay to predict BBB penetration and is carried out in a coated 96-well membrane filter. In our assays, the filter membrane of the donor plate was coated with PBL (Polar Brain Lipid, Avanti, Denver, CO, USA) in dodecane (4 µL of 20 mg mL^−1 PBL in dodecane), and the acceptor well was filled with 300 µL of phosphate buffered saline (PBS) (pH 7.4; VA). The tested compounds were first dissolved in DMSO, and the resulting mixture was diluted with PBS (pH 7.4) to reach the final concentration (40–100 µM) in the donor well. […] Three hundred microliters of the donor solution (VD) were added to the donor wells, and the donor filter plate was carefully placed onto the acceptor plate to ensure that the coated membrane was “in contact” with both the donor solution and the acceptor buffer. The test compound diffused from the donor well through the polar brain lipid membrane (area = 0.28 cm^2) to the acceptor well. The concentration of the tested compound in both the donor and acceptor wells was assessed after 3, 4, 5, and 6 h of incubation, respectively, in quadruplicate using a UV plate reader Synergy HT (Biotek, Winooski, VT, USA) at the maximum absorption wavelength of each compound. Additionally, solutions at the theoretical equilibrium of the given compound (i.e., the theoretical concentration if the donor and acceptor compartment were simply combined) were also prepared.

Series [4] deals with A549 cells. In words: MTT assay, A549. The format is cell-based, human. To be noted: for IC50: Homo sapiens. As for the experimental part:
Human lung carcinoma cell line A549 and CCD-18Co colon fibroblasts were purchased from the American Type Culture Collection (ATCC, Rockville, MD, USA). The A549 cells were cultured in a complete RPMI-1640 medium (Sigma-Aldrich, St. Louis, MO, USA), and CCD-18Co cells were cultured in an MEM medium (PAN-Biotech GmbH, Aidenbach, Germany). The media were supplemented with 10% fetal bovine serum (FBS; Biosera, Nuaille, France) and antibiotics (1% Antibiotic-Antimycotic 100× and 50 × 10^−3 g l^−1 gentamicin; Biosera) at 37 °C, 95% humidity, and 5% CO2.
Prior to the selected treatments, cells were seeded on 12-well μ-Chamber slides (ibidi GmbH, Martinsried, Germany) and 6 and/or 96-well plates (TPP, Trasadingen, Switzerland) and left to settle for 24 h. The biscoumarin derivative solutions (at concentrations ranging from 10–100 µM) were then added to cells for 24 or 48 h, and analysis was subsequently performed.
MTT assays were performed in order to evaluate changes in the metabolic activity of cells that had occurred as a consequence of treatment with the biscoumarin derivatives. A549 cells (15 × 10^3 cells/cm^2) and CCD-18Co ([…]) were seeded in 96-well microplates. The cells were treated for 24 and 48 h with different concentrations (10, 25, 35, 50, 65, 75, and 100 µM) of the derivatives. After the treatment, the MTT (3-(4,5-dimethylthiazol-2-yl)-2,5-diphenyltertrazolium bromide) solution in PBS (5 mg mL^−1) was added to each well. […]. The absorbance of formazan (λ = 584 nm) was measured using a BMG FLUOstar Optima spectrometer (BMG Labtech GmbH, Offenburg, Germany). The results were evaluated as percentages of the absorbance of the untreated control. Results are presented as the average percentage of cells from three independent experiments. IC50 values for the derivatives were extrapolated from a sigmoidal fit (dose–response curve) to the metabolic activity data using OriginPro 8.5.0 SR1 (OriginLab Corp., Northampton, MA, USA).
Background: Tetrazolium dyes change colour on reduction, which living cells bring about.

Series [5] concerns A549 cells. In words: Mitotic activity (Ki67 index) by immunolabelling and confocal microscopy. The format is cell-based, human. The settings on record: 24 h, vs control. The procedure:
The studied biscoumarin derivatives were added to cells seeded on 12-well μ-Chamber slides for 24 h. After cultivation with the derivatives, the samples (both the control without the derivatives and experimental groups) were washed with a 0.1 M PBS solution buffer to remove all non-cell-absorbed derivative residues and fixed with 4% paraformaldehyde for 20 min at RT. Alternatively, cells were incubated with Mitotracker Red (0.5 µM; Thermo Fisher Scientific, Waltham, MA, USA) for 30 min at 37 °C, washed with 0.1 M PBS, and fixed with 4% paraformaldehyde for 20 min at RT. For the quantification of proliferative activity and programmed cell death, samples were incubated overnight at 4 °C with the mouse anti-Ki67 antibody (NCL-L-Ki67-MM1, 1:100, Leica Biosystems, Wetzlar, Germany) and rabbit anti-cleaved PARP (cat. no. 94885, 1:100, Cell Signaling, Danvers, MA, USA) diluted in 0.1 M PBS containing 1% normal donkey serum (Jackson Immunoresearch, Cambridgeshire, Great Britain) and 0.3% Triton-X 100. […]
All samples were evaluated using a Leica TCS SP5X confocal system (Leica Microsystems, Mannheim, Germany). The biscoumarin derivatives were visualized in cells using a 405 nm laser, and the fluorescence was captured in the range of 420–480 nm with identical exposure parameters for all samples. […] Microphotographs were taken with a 40× objective lens (NA = 0.75; voxel size 223 × 223 nm) and a 63× oil lens (NA = 1.4; voxel size 171 × 171 nm); the images were captured and analyzed using LAS AF software (Leica Microsystems, Wetzlar, Germany).
The proliferative activity of cells incubated with the studied derivatives was expressed as a Ki67 index. In all samples (n = 3 samples per each experimental group), the number of Ki67^+ nuclei was calculated in groups of 100 randomly selected cells. […]

The subject of series [6] is hAChE. Set-up: method as in PMID 25812965, PMID 27744252, PMID 10213168. The settings on record: Figure 2; cited from earlier work.
For series [7], the system named is hMAO-B. Also on record: method as in PMID 25812965, PMID 27744252, PMID 10213168. The settings on record: printed in Figure 2, quantity not named; cited from earlier work.
In series [8] the test system is AChE. Set-up: method as in PMID 25812965, PMID 27744252, PMID 10213168. The settings on record: Figure 2; cited from earlier work.
Series [9] deals with BChE. Set-up: method as in PMID 25812965, PMID 27744252, PMID 10213168. The settings on record: Figure 2; cited from earlier work.
The subject of series [10] is rat brain AChE. Set-up: method as in PMID 10213168. The settings on record: cited from earlier work.
Series [11] concerns A549 cancer cell line. To be noted: ref 55 (Huang et al.); cited from earlier work.
Series [12] deals with human umbilical vein endothelial cell (HUVEC) cell line. To be noted: ref 55 (Huang et al.); cited from earlier work.

Read-outs that look alike come from different tables or passages of the source. Bounds are passed on as bounds.

T1 sequence (P06276 29-602): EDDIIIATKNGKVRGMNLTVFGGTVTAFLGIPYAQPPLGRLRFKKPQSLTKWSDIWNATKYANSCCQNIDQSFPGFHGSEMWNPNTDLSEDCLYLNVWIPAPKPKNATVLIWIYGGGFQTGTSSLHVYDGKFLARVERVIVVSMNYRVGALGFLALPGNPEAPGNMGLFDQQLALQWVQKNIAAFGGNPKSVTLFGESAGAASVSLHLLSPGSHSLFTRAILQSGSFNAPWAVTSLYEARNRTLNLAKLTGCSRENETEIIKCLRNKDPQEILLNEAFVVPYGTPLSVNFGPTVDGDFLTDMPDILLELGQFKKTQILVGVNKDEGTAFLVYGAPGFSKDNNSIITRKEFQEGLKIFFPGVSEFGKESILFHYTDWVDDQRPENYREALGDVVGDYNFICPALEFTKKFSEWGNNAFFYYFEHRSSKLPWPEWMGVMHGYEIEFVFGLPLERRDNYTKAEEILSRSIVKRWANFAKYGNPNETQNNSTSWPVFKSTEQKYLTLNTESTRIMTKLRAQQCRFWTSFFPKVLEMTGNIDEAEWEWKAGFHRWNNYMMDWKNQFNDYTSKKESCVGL
T2 sequence (P22303 32-614): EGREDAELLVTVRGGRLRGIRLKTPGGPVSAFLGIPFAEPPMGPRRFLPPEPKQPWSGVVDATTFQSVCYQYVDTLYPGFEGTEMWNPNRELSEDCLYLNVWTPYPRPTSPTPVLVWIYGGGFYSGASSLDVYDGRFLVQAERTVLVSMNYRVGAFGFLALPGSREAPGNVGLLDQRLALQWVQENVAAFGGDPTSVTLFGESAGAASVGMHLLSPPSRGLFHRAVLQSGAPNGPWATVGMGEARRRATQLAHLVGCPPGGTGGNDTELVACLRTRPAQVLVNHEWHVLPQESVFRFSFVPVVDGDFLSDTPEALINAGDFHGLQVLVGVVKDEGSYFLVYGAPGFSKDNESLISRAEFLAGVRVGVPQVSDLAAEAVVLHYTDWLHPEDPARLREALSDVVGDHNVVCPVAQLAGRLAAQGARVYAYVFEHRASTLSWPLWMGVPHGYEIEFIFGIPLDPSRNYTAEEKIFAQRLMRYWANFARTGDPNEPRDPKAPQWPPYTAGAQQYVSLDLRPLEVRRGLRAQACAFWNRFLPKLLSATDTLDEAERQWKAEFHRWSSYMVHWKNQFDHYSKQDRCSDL

On to `COC(=O)Cc1cc(=O)oc2cc(OCCCN3CCN(CCNC(=O)Cc4cc(=O)oc5cc(O)ccc45)CC3)ccc12` [12a], for which the “IC50 ± S.E.M. hBChE” value in [1] is listed as “did not show inhibitory activity”. Moreover, the IC50 (commonly the midpoint of a concentration-inhibition curve) is above 500 µM in [1] (read-out: IC50 ± S.E.M. hBChE); above 500 µM in [2] (read-out: IC50 ± S.E.M. hAChE); above 100 µM in series [4] (A549, 24 h, read-out: IC50 A549 24 h); above 100 µM in [4] (A549, read-out: IC50 A549 48 h, 48 h). The “IC50 ± S.E.M. hAChE” value in [2] is given as “did not show inhibitory activity”. Also, in series [3] (PAMPA, pH 7.4), the Papp (as a rule, the rate of passage across a membrane or cell layer, normalised by area and donor concentration) worked out at 1.53 ± 0.64 ×10⁻⁶ cm/s. The “CNS Predicted Availability” value in series [3] (classification from PAMPA-BBB Pe) was “CNS− (CNS−: low BBB permeation predicted with Pe (×10^−6 cm s^−1) < 2.0)”. Also, the “Metabolic activity of A549 cells (in words)” value in [4] (10 to 100 μM, 24 and 48 h) was “did not lose the ability to convert dye”. Besides, the “Number of proliferating cells (Ki67 index), in words” value in series [5] is on record as “no significant changes”.
`Cc1c(C)c2ccc(OCCN3CCN(CCNc4c5c(nc6ccccc46)CCCC5)CC3)cc2oc1=O` [compound 6]: in series [6], the IC50 is 0.0161 µM.
`Cc1c(N=O)c(=O)oc2cc(CCCN3CCC(Cc4ccccc4)CC3)ccc12` [compound 7]: the half-maximal inhibitory concentration (IC50) in series [7] is 5.9 µM; in series [8], 0.3 µM; in series [9] it was 0.98 µM.
On to `COc1cc2oc(=O)c(C)c(C)c2cc1OCCCN1CCN(c2ccccc2OC)CC1` [KA-672, ensaculin], for which the half-inhibitory concentration (IC50) in [10] was 0.36 µM.
Consider `O=c1[nH]cc(F)c(=O)[nH]1` [5-fluorouracil], for which the results for the IC50 in series [11] and in series [12] were 36.3 µM and 25.1 µM, respectively.
`N.N.[Cl][Pt][Cl]` [cisplatin]: the values for the IC50 in [11] and in [12] were 13.5 µM and 9.68 µM, respectively.
